Assay results as given in patent US6034215A, “3-amino-2-oxo-1-piperidnercetic derivatives as enzyme inhibitors” (Corvas International, Inc., priority 1997, dated 2000).
Read-outs that look alike come from different tables or passages of the source.

Assays:
Human rt-PA (Activase®) = target: T1, Human rt-PA (Activase®) (Homo sapiens, UniProt P00750); assay: In vitro enzyme assay for specificity: recombinant tissue plasminogen activator, IC50; assay type: biochemical; conditions: Table 3
T1 construct: purchased Genentech Inc. Activase®
T1 sequence (P00750 36-562): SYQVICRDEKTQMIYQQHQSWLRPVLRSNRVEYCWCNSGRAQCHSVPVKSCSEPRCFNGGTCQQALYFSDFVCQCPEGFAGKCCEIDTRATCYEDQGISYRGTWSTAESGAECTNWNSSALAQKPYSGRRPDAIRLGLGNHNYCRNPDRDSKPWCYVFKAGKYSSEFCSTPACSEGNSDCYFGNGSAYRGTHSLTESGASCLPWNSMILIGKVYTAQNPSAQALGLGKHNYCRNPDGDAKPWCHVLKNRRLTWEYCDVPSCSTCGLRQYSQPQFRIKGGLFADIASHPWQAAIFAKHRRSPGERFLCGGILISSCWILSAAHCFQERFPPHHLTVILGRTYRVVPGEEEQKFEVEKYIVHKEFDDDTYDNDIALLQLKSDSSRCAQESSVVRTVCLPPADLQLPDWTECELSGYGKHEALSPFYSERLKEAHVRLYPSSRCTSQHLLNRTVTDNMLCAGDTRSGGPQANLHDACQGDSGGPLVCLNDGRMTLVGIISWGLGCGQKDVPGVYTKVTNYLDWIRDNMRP

human aPC = target: T2, human aPC (Homo sapiens, UniProt P04070); assay: In vitro enzyme assay for specificity: activated protein C, IC50; assay type: biochemical; conditions: Table 3
T2 construct: purchased Hematologic Technologies, Inc
T2 sequence (P04070 43-197 limits assumed): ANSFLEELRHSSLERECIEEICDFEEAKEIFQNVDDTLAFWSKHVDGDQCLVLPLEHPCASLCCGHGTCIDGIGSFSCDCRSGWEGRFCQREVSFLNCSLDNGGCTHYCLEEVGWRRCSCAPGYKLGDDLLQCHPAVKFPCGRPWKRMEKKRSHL
T2 sequence (P04070 212-461 limits assumed): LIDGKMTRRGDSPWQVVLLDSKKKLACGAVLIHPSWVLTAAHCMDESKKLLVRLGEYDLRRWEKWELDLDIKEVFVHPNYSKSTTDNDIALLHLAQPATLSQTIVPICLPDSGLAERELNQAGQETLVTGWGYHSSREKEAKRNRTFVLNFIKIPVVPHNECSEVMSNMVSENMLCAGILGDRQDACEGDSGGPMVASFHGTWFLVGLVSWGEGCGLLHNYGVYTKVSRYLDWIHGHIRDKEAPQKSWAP
Protocol: aPC catalytic activity was determined using the chromogenic substrate, Pefachrome PC (delta-carbobenzloxy-D-lysine -L-prolyl-L-arginine-p-nitroanilide), obtained from Pentapharm Ltd.). […] Purified human aPC was obtained from Hematologic Technologies, Inc. The enzyme was diluted into HBSA prior to assay in which the final concentration was 1.0 nM.

[1] = target: T3, bovine pancreatic trypsin (Bos taurus, UniProt P00760); assay: In vitro enzyme assay for specificity: trypsin, IC50; assay type: biochemical; conditions: Table 2
T3 sequence (P00760 24-246): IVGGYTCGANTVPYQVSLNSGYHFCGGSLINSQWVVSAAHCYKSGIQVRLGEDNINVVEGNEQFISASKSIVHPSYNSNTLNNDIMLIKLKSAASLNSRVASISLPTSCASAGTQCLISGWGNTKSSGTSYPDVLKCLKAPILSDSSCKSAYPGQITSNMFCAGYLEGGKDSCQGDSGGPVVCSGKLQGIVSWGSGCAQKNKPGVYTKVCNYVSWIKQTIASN
Protocol: Trypsin catalytic activity was determined using the chromogenic substrate, S-2222 (benzoyl-L-isoleucine-L-glutamic acid-(gamma-methyl ester)-L-arginine-p-nitroanilide), which was obtained from Kabi Diagnostica. […] Purified (3×-crystallized; TRL3) bovine pancreatic trypsin was obtained from Worthington Biochemical Corp. The enzyme was reconstituted in deionized water and diluted into HBSA prior to assay in which the final concentration was 0.5 nM.

citrated rat plasma = assay: Anticoagulant effect in rat plasma, activated partial thromboplastin time (APTT) assay; assay type: biochemical; conditions: for prolongation of the APTT: rat plasma, broad concentration range of added inhibitor
Protocol: (§1) The ex vivo anticoagulant effects of BzlSO2 -norVal (cyclo)-Gly-Arg-al(Example 8) and N-(BnSO2 -norLeu (cyclo)-Gly)-L-argininal (Example 34) were determined by measuring the prolongation of the activated partial thromboplastin time (APTT) over a broad concentration range of the added inhibitor, using pooled normal human and rat plasma.
(§2) Fresh frozen citrated pooled normal human plasma was obtained from George King Biomedical, Overland Park, Kans. Pooled normal rat plasma was prepared from citrated whole blood collected from anesthetized rats using standard procedures. The plasma was flash frozen and stored at -80° C. until use.
(§3) Measurements APTT was made using the Coag-A-Mate RA4 automated coagulometer (General Diagnostics, Organon Technica, Oklahoma City, Okla.) using the Automated APTT reagent (Organon Technica, Durham, N.C.) as the initiator of clotting according to the manufacturers instructions. The assay was conducted by making a series of dilutions of the test compounds in rapidly thawed plasma followed by adding 200 microliters to the wells of the assay carousel.

citrated human plasma = assay: Anticoagulant effect in human plasma, activated partial thromboplastin time (APTT) assay; assay type: biochemical; conditions: for concentration which caused a doubling of the control clotting time (APTT): citrated human plasma, mean of two independent determinations; for prolongation of the APTT: human plasma, broad concentration range of added inhibitor
Protocol: as §1, §2, §3

[2] = test system: FeCl3 -induced Platelet-dependent Arterial Thrombosis; assay: Rat model of FeCl3 -induced platelet-dependent arterial thrombosis; assay type: in vivo; conditions: for ED50 for thrombus prevention (dose that prevents complete thrombotic occlusion in 50% of animals tested): rat FeCl3 model of arterial thrombosis; for Incidence of Occlusion: rat
Description: This is a well characterized model of platelet dependent, arterial thrombosis which has been used in the evaluation potential antithrombotic compounds such as direct thrombin inhibitors. Kurz, K. D., Main, B. W., and Sandusky, G. E., Thromb. Res., 60: 269-280 (1990). In this model a platelet-rich, occlusive thrombus is formed in a segment of the rat carotid artery treated locally with a fresh solution of FeCl3 absorbed to a piece of filter paper. The FeCl3 is thought to diffuse into the treated segment of artery and causes de-endothelialization of the affected vessel surface. […] The effect of a test compound on the incidence of occlusive thrombus formation following the application of the FeCl3 is monitored by ultrasonic flowtometry and is used as the primary end point. The use of flowtometry to measure carotid artery blood flow, is a modification of the original procedure in which thermal detection of clot formation was employed. Kurz, K. D., Main, B. W., and Sandusky, G. E., Thromb. Res., 60: 269-280 (1990).
Male Harlan Sprague Dawley rats (420-450 g) were acclimated at least 72 hours prior to use and fasted for 12 hours prior to surgery with free access to water. The animals were prepared, anesthetized with Nembutal followed by the insertion of catheters for blood pressure monitoring, drug and anesthesia delivery. The left carotid artery was isolated by making a midline cervical incision followed by blunt dissection and spreading techniques to separate a 2 cm segment of the vessel from the carotid sheath. A silk suture is inserted under the proximal and distal ends of the isolated vessel to provide clearance for the placement of a ultrasonic flow probe (Transonic) around the proximal end of the vessel. The probe is then secured with a stationary arm.
Following surgery the animals were randomized in either a control (saline) or treatment group with test compound (BzlSO2 -norVal(cyclo)-Gly-Arg-al or N-(BnSO2 -norLeu(cyclo)Gly)-L-argininal)with at least 6 animals per group per dose. The test compound was administered as a single intravenous bolus at the doses outlined in Table 3 after placement of the flow probe and 5 minutes prior to the thrombogenic stimulus. At t=0, a 3 mm diameter piece of filter paper (Whatman #3) soaked with 10 microliters of a 35% solution of fresh FeCl3 (made up in water) was applied the segment of isolated carotid artery distal to the flow probe. Blood pressure, blood flow, heart rate, and respiration were monitored for 60 minutes.
The incidence of occlusion (defined as the attainment of zero blood flow) was recorded as the primary end point.
This allows a direct comparison of the antithrombotic efficacy of BzlSO2 -norVal(cyclo)-Gly-Arg-al and N-(BnSO2 -norLeu(cyclo)-Gly)-L-argininal with other antithrombotic agents which have also been evaluated in this model as described above. Table 6 lists the ED50 values for several well known anticoagulant agents in this model compared to the present compounds.

human alpha-thrombin = human alpha-thrombin (Homo sapiens, UniProt P00734); assay: Kinetic analysis in an in vitro thrombin inhibition assay (Ki); assay type: biochemical; conditions: Table 1; Mean ± SD, n = 3; steady state velocities over 40 minutes
human α-thrombin = human α-thrombin (Homo sapiens, UniProt P00734); assay: In vitro enzyme assay for specificity: Thrombin (fIIa) assay, IC50; assay type: biochemical
Protocol: IC50 determinations were conducted where HBSA (50 μL), α-thrombin (50 μl) and inhibitor (50 μl) (covering a broad concentration range), were combined in appropriate wells and incubated for 30 minutes at room temperature prior to the addition of substrate Pefachrome-t-PA (50 μl).

[3] = Oral activity in dogs: blood levels and bioavailability; assay type: in vivo, beagle dogs
Protocol: The pharmacodynamic and pharmacokinetic parameters of the compound of Example 34 were evaluated after oral administration in dogs. Adult beagle dogs (9-12 kg) were housed individually in standard cages, and were fed a standard certified commercial diet and tap water ad libitum. Dogs were given an oral dose of 20 mg/kg test compound, in 55 ml deionized water, via a gastric tube, followed by a water rinse. In a separate protocol, 5 mg/kg of test compound, in 5 ml 0.9% sodium chloride, were administered by fast bolus i.v. injection through an indwelling saphenous vein catheter. The same dogs were used for both routes of administration, with a one week wash out period between use of the dogs for the different protocols. […]
(§4) The blood levels of test compound were measured by extracting the compound from plasma, separation by HPLC, and post-column derivatization with a fluorogenic functional group. The clotting time of blood was measured using an APTT assay, which measures the prolongation of the activated partial thromboplastin time (APTT) by the test compound. […]
The systemic bioavailability of the test compound administered by the oral route was calculated by comparing the AUC values (area under curve describing level of compound in blood over time) after i.v. and oral administration. […]

[4] = test system: activated partial thromboplastin time (APTT); assay: Oral activity in dogs: clotting time of blood samples by APTT assay; assay type: in vivo, beagle dogs; conditions: after oral dosing
Protocol: The pharmacodynamic and pharmacokinetic parameters of the compound of Example 34 were evaluated after oral administration in dogs. Adult beagle dogs (9-12 kg) were housed individually in standard cages, and were fed a standard certified commercial diet and tap water ad libitum. Dogs were given an oral dose of 20 mg/kg test compound, in 55 ml deionized water, via a gastric tube, followed by a water rinse. In a separate protocol, 5 mg/kg of test compound, in 5 ml 0.9% sodium chloride, were administered by fast bolus i.v. injection through an indwelling saphenous vein catheter. The same dogs were used for both routes of administration, with a one week wash out period between use of the dogs for the different protocols.
After mixing with the anticoagulant, each blood sample was immediately chilled by immersion in a slurry of ice and water. The plasma was separated by centrifugation (4° C., 2400 rpm, 10 min) within 10 min of collection, and then transferred to a cryotube and stored at […] until analysis.
as §4

human plasmin = human plasmin (Homo sapiens, UniProt P00747); assay: In vitro enzyme assay for specificity: plasmin assay, IC50; assay type: biochemical; conditions: Table 3
Sequence of human plasmin (P00747 97-580 limits assumed): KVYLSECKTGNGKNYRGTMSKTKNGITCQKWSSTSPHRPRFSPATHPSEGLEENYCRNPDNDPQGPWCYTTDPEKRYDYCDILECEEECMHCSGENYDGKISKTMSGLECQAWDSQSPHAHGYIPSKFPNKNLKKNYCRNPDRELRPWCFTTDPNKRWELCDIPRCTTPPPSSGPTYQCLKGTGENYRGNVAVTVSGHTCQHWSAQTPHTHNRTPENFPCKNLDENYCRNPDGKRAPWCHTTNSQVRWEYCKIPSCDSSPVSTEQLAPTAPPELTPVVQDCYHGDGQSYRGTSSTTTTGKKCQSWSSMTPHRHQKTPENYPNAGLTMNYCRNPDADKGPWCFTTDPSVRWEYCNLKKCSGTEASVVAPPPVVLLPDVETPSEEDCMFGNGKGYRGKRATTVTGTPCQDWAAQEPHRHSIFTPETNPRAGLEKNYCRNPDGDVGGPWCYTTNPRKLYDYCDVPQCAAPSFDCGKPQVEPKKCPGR
Sequence of human plasmin (P00747 581-810 limits assumed): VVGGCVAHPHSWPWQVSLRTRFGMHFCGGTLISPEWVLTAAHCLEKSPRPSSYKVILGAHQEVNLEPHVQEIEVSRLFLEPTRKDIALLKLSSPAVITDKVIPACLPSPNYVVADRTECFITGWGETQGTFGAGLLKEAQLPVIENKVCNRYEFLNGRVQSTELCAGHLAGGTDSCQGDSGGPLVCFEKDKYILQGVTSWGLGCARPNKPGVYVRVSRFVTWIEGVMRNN
Protocol: Plasmin catalytic activity was determined using the chromogenic substrate, S-2251 (D-valyl-L-leucyl-L-lysine-p-nitroanilide), which was obtained from Kabi Diagnostica.

[5] = 0.3 mg/kg single intravenous bolus 5 minutes prior to FeCl3, n 6, monitored 60 minutes
[6] = 1.0 mg/kg single intravenous bolus 5 minutes prior to FeCl3, n 6, monitored 60 minutes
[7] = 3.0 mg/kg single intravenous bolus 5 minutes prior to FeCl3, n 6, monitored 60 minutes
[8] = 5.0 mg/kg single intravenous bolus 5 minutes prior to FeCl3, n 6, monitored 60 minutes
[9] = Table 2, 30-minute incubation with enzyme before substrate, read-out: IC50 alpha-thrombin
[10] = Table 3, read-out: IC50 (nM) thrombin

SMILES | IC50 (Human rt-PA (Activase®)) | IC50 (human aPC) | IC50 [1] | IC50 (human α-thrombin; [10]) | IC50 (human plasmin) | also measured
NC(N)=NCCC[C@@H](C=O)NC(=O)CN1CCCC(NS(=O)(=O)Cc2ccccc2)C1=O (stereo partly drawn) [Example 8, N-benzylsulfonyl-norVal(cyclo)-Gly-L-argininal] | > 2500 nM | > 2500 nM | 1550 nM |  |  | concentration which caused a doubling of the control clotting time (APTT) (citrated rat plasma; citrated rat plasma, control clotting time 20 sec, mean of two independent determinations): 22.1 µM; prolongation of the APTT (citrated rat plasma): prolonged the APTT in a dose-dependent manner; concentration which caused a doubling of the control clotting time (APTT) (citrated human plasma): 12.8 µM; prolongation of the APTT (citrated human plasma): prolonged the APTT in a dose-dependent manner; ED50 for thrombus prevention (dose that prevents complete thrombotic occlusion in 50% of animals tested) [2]: 0.75 mg/kg; Incidence of Occlusion [2, 5]: 6/6; Incidence of Occlusion [2, 6]: 2/6; Incidence of Occlusion [2, 7]: 1/6; Incidence of Occlusion [2, 8]: 0/6
NC(N)=NCCC[C@@H](C=O)NC(=O)CN1CCCCC(NS(=O)(=O)CC2CCCCC2)C1=O (stereo partly drawn) [Example 36(i), N-(cyclohexylmethyl-SO2 -norLeu(cyclo)-Gly)-L-argininal] |  |  | 7.86 nM |  | > 2500 nM | IC50 (human α-thrombin; [9]): 4.54 nM
NC(N)=NCCC[C@@H](C=O)NC(=O)CN1CCCCC(NS(=O)(=O)Nc2ccccc2)C1=O (stereo partly drawn) [Example 36(n), N-(phenylamino-SO2 -norLeu(cyclo)-Gly)-L-argininal] |  |  |  | 14.2 nM | > 2500 nM | 
N=C(N)NCCC[C@@H](C=O)NC(=O)CN1CCCC(NS(=O)(=O)Cc2cccc(C(F)(F)F)c2)C1=O (stereo partly drawn) [Example 36(p), N-(3-trifluoromethylbenzyl-SO2-norLeu(cyclo)-Gly)-L-argininal] | > 2500 nM | > 2500 nM |  | 1.9 nM | > 2500 nM | 
NC(N)=NCCC[C@@H](C=O)NC(=O)CN1CCCC(N)(Cc2ccccc2)C1=O (stereo partly drawn) [Example 55, N-[D, L-3-Amino-3-benzyl-2-oxo-1-piperidineacetyl]-L-argininal] | > 2500 nM | > 2500 nM |  | 5.41 nM | > 2500 nM | 
NC(N)=NCCC[C@@H](C=O)NC(=O)CN1CCCCC(N)(Cc2ccccc2)C1=O (stereo partly drawn) [Example 64, N-[D,.L-3-Amino-3-benzyl-hexahydro-2-oxo-azepine-1-acetyl]-L-argininal] | > 2500 nM | > 2500 nM |  | 5.41 nM | > 2500 nM | 
N=C(N)NCCC[C@@H](C=O)NC(=O)CN1CCC[C@H](NCCc2ccccc2)C1=O [Example 72(a), N-[(S)-3-N-phenylethylamino-2-oxo-1-piperidineacetyl]-L-argininal] | > 2500 nM | > 2500 nM |  | 3.09 nM | > 2500 nM | 

Continued, in another order:

IC50 (Human rt-PA (Activase®)) | IC50 (human aPC) | IC50 [1] | IC50 (human α-thrombin; [10]) | IC50 (human plasmin) | SMILES | also measured
 |  | 72 nM | 0.71 nM |  | NC(N)=NCCC[C@@H](C=O)NC(=O)CN1CCCCC(NS(=O)(=O)Cc2ccccc2)C1=O (stereo partly drawn) [Example 34, N-(BnSO2 -norLeu(cyclo)-Gly)-L-argininal] | Ki (human alpha-thrombin): 0.538 ± 0.08 nM; IC50 (human α-thrombin; [9]): 0.93 nM; prolongation of the APTT (citrated rat plasma): prolonged the APTT in a dose-dependent manner; concentration which caused a doubling of the control clotting time (APTT) (citrated human plasma): 4.5 µM; prolongation of the APTT (citrated human plasma): prolonged the APTT in a dose-dependent manner; ED50 for thrombus prevention (dose that prevents complete thrombotic occlusion in 50% of animals tested) [2]: 2.1 mg/kg; Incidence of Occlusion [2, 5]: 6/6; Incidence of Occlusion [2, 6]: 6/6; Incidence of Occlusion [2, 7]: 2/6; Incidence of Occlusion [2, 8]: 2/6; time at which blood level of compound reached maximum levels ([3]; after administration): 30 to 40 min; systemic bioavailability (ratio of AUC oral to AUC i.v.) ([3]; oral 20 mg/kg vs i.v. 5 mg/kg, corrected for difference in dose): approximately 66%; time to significant elevation of APTT [4]: 20 to 30 min
 |  |  | 1.71 nM |  | Cc1ccccc1CS(=O)(=O)NC1CCCN(CC(=O)N[C@H](C=O)CCCNC(=N)N)C1=O (stereo partly drawn) [Example 36(q), N-(2-methylbenzyl-SO2-norLeu(cyclo)-Gly)-L-argininal] | 
 |  |  | 0.93 nM |  | Cc1cccc(CS(=O)(=O)NC2CCCCN(CC(=O)N[C@H](C=O)CCCN=C(N)N)C2=O)c1 (stereo partly drawn) [Example 36(r), N-(3-methylbenzyl-SO2-norLeu(cyclo)-Gly)-L-argininal] | 
